Experimental findings from patent publication US20080200501A1, “NOVEL CANNABINOID RECEPTOR LIGANDS, PHARMACEUTICAL COMPOSITIONS CONTAINING THEM, AND PROCESSES FOR THEIR PREPARATION” (Glenmark Pharmaceuticals S.A., priority 2006, published 2008) are described below.

Data set [1] can be described thus: Pharmacokinetic study, single oral dose in rats. The class given is in vivo. Particulars: Sprague-Dawley, rat; mean; male Sprague-Dawly rats, single oral dose 10 mg/kg in 0.5% methylcellulose suspension, overnight fasted; plasma, HPLC-UV. How it is done: Male Sprague-Dawly rats were administered by oral gavage a single oral dose of 10 mg/kg b.wt. test compound in 0.5% methylcellulose suspension in overnight fasted (12 hrs before dose) condition. Fasting was continued till 4 hr post dose. Blood samples were collected predose and at 15 and 30 minutes and 1, 2, 3, 4, 6, 8, 12 and 24 hrs post-dose and were kept on an ice bath till further processing. These samples were separated for plasma by centrifuging at 4° C. for 10 minutes at 1000×g and then stored at −70° C. till further analysis. These samples were analyzed for the levels of the test compound by HPLC-UV and the pharmacokinetic parameters were calculated using these concentrations by using WinNonlin software (Pharsight Inc., USA, Version 5.1).

The compound `CCCCCC(C)(C)NC(=O)c1nn(-c2ccc(F)cc2F)c2c1C1CCC2C1` (stereo not drawn) displayed a melting point of 76 to 78 °C.

`CC(C)(CO)NC(=O)c1nn(-c2ccc(Cl)cc2)c2c1[C@@H]1CC[C@H]2C1` (single isomer, unassigned) [Compound 98, (1S,7R)- or (1R,7S)-N5-(2-Hydroxy-1,1-dimethylethyl)-3-(4-chlorophenyl)-3,4-diazatricyclo[5.2.1.0^2,6]deca-2(6),4-diene-5-carboxamide]: in data set [1], the AUC(0-inf) is 12000 ng·h/mL, the area under the curve AUC(0-t) amounted to 11700 ng·h/mL, the peak concentration (Cmax) was 1950 ng/mL and the Tmax is 0.5 h. In data set [1], the half-life is 4.77 h.
